Reference: patent US9714469B2, “Composition for increasing the lipophobicity of a watch-making component” (Rolex SA, priority 2010, dated 2017)

Legend:
[1] = Contact angle of water drops on coated watch-making surfaces; format: physicochemical; conditions: molecule alone 10^−3 M in IPA, soaking 5 min
Procedure: (§1) The epilame effect is conventionally evaluated by measuring the contact angle of the lubricants or of a test fluid (water, test liquids NSSC test) on the surface of the component.
(§2) Deposit • Place the watch part or parts in a container with an adapted shape, • Cover the part or parts with coating solution (thiol, BP or BP/thiol-PFPE mixture), • Incubate between 5 minutes and 360 minutes, • Eliminate the supernatant—remove the part, • The part is drip dried (centrifugation).
(§3) Dehydration—Rinsing • The part which received the deposit is placed in an oven at 120° C. for a period ranging from 6 to 15 h (only for rubies and silicon), • The part is brought back to room temperature then immersed in IPA under ultrasound for 2 minutes, • The part is dried under a stream of hot air.
Different surfaces were treated with solutions of thiol I.3 and BP II.1 molecules. […]
According to the epilame method described in paragraphs 3 and 5.1, the materials were treated by the mixture of the thiol molecule I.3. with the BP molecule II.1. dissolved in IPA. The contact angles were measured before and after treatment of the surface. […]
(§4) The properties of thiol and bisphosphonate molecules in isolation were measured on the surfaces of steel and gold-plated substrates using solutions at 10^−3 M and in isopropanol in accordance with the protocol described in example 3 above, with a soaking time of 5 minutes.

[2] = Contact angle of test oil on coated watch-making surfaces (epilame effect); format: physicochemical; conditions: for contact angle test oil: molecule alone 10^−3 M in IPA, soaking 5 min; for contact angle of the gold-plated brass part with the test oil: molecule alone at 10^−3 M, soaking 30 min
Procedure: as §1
The increased epilame effect permitted by the composition of the invention must be such that this contact angle with a watch oil is greater than 30°, preferably 35°, even more preferably 40°, as such an angle corresponds to very high epilame efficacy (see Renaud 1956, Osowiecki 1962 and Massin 1971).
as §2
as §3, with “air. […]” for “air.”
The lipophobic effect was evaluated by measuring the contact angles of a test oil having surface tension of 33 mN/m on different surfaces. […]
In accordance with the reference articles in the watch-making literature (Renaud 1956, Osowiecki 1962 and Massin 1971), an angle of over 40° with a watch lubricant corresponds to very high epilame efficacy. […]
On the basis of the kinetics of molecule I.1, the following parameters were used to test the four other thiol-PF and thiol-PFPE molecules (I.2, I.3, I.4, I.5): • Concentration: 10^−3 M for each compound I.1 to I.5 • Solvent: Isopropyl alcohol (IPA) or Biosane T212 (MMCC) • Soaking Time: 30 minutes • Rinsing time: 2 minutes under ultrasound • Drying: hot air
Evaluation of functional properties was carried out by measuring the contact angles between the surface of the watch-making component and the drop of watch-making oil. It is noticeable that the concentration of 10^−3 M gives results that comply with the desired epilame effect (angle greater than 30°) for all molecules I.1 to I.5.
as §4

Structure (SMILES)	contact angle H2O ([1]; Au (gold-plated brass)) [°]	contact angle H2O ([1]; Steel) [°]	ranking of contact angles among the molecules [2]	contact angle test oil ([2]; Au (gold-plated brass)) [°]	contact angle test oil ([2]; Steel) [°]	contact angle of the gold-plated brass part with the test oil ([2]; solvent IPA) [°]	contact angle of the gold-plated brass part with the test oil ([2]; solvent MMCC (Biosane T212)) [°]
O=C(NCCCCCCS)C(F)(OC(F)(F)C(F)(OC(F)(F)C(F)(OC(F)(F)C(F)(OC(F)(F)C(F)(OC(F)(F)C(F)(F)C(F)(F)F)C(F)(F)F)C(F)(F)F)C(F)(F)F)C(F)(F)F)C(F)(F)F (stereo not drawn) [I.3]	96.4	70.2	highest	69.0	33.5	75.7 ± 6	63.8 ± 2.8
O=C(NCCS)C(F)(F)C(F)(F)C(F)(F)C(F)(F)C(F)(F)C(F)(F)C(F)(F)F [I.5]						67.6 ± 3.6	49.5 ± 2.5
